Test system in the first data set: not listed separately
As to the kind of experiment: Shake-flask partition coefficient, 1-octanol/PBS. As to conditions: average of three independent experiments at 27 °C. It counts as physicochemical. The source says:
The n-octanol/water partition coefficient (log Po/w) is a well-established parameter that helps to predict the biological activity of drugs and other biologically active compounds.[56] The so-called “shake-flask” method was adopted to determine the partition coefficient using 1-octanol and PBS (phosphate-buffered saline) as solvents.[57] All the porphyrin derivatives presented low lipophilicity values. At the same time, the chlorin compounds were much more lipophilic as expected due to the reduction of one of the pyrrole rings and the formation of the new ring in the chlorin.
The partition coefficient (log Po/PBS) of each compound was determined experimentally by the “shake-flask” method at room temperature following reported methods.[57],[96] A mixture of 1-octanol and PBS in equal amounts was shaken for 24 h, after which the phases were allowed to separate for 24 h. Then, a 1 × 10^–5 M solution of each compound is prepared in 1-octanol/PBS (1:1), and the mixture is left to stir for 24 h. After 24 h of stirring, the mixture is left for 24 h to separate the two phases. Finally, the concentration of each compound in the two phases is determined by UV–vis spectroscopy. logP was determined by the following eq 3.[97] [drawing 3] 3 Where Aap is the absorbance after partition, and Abp is the absorbance before partition.
Turning to `C=Cc1c(C)c2cc3nc(cc4[nH]c(cc5nc(cc1[nH]2)C(C)=C5CCC(=O)OC)c(CCC(=O)OC)c4C)C1(C)C3=CCC(C(=O)OC)=C1C(=O)OC` (stereo not drawn) [3A], the “log PO/PBS” value is reported as 1.478 ± 0.083.
Still for that read-out and setting: in the case of `C=Cc1c(C)c2cc3nc(cc4[nH]c(cc5nc(cc1[nH]2)C1(C)C5=CCC(C(=O)OC)=C1C(=O)OC)c(C)c4CCC(=O)OCc1ccccc1)C(CCC(=O)OCc1ccccc1)=C3C` (stereo not drawn) [4B] it was 1.682 ± 0.176.

In the next data set the test system is AGS gastric cancer cells. As to the kind of experiment: MTT survival assay, dark or white-light irradiation. Type of data set: cell-based, human. As to conditions: 8 h incubation, kept in dark, MTT after 48 h, N = 3, read-out: IC50 dark. Here is the method: To assess the anticancer potential of compounds, the cytotoxicity was evaluated on the gastric cancer cell line AGS. The cells were treated in the dark for 8 h with increasing concentrations of the different compounds (Table 2). Cisplatin was used as a positive cytotoxic and clinically used drug control, and verteporfin (VP) or protoporphyrin-IX (PpIX) were used as positive PDT controls. Cells were then irradiated for 15 min with white light or kept in the dark and further cultivated for 48h in the dark. An MTT test was then performed to evaluate the impact of the different treatments on cell survival. […] The lower cytotoxicity of Ru-2 is most likely due to its low stability in biological media, as determined by stability tests in PBS/DMSO.
The human gastric adenocarcinoma (AGS) cell line was acquired from ATCC (Manassa, VA). AGS cells were cultured in RPMI 1640 medium (Roswell Park Memorial Institute) containing 10% fetal bovine serum (FBS) at 37 °C in a humidified atmosphere of 95% air and 5% CO2.
The antiproliferative activity of cancer cells was determined by the 3-(4,5-dimethylthiazol-2-yl)-2,5-diphenyltetrazolium bromide (MTT) assay. Cells were seeded at 10.000 cells per well (200 μL) in Cellstar 96-well plates (Greiner Bio-One) and further incubated for 24 h. Cells were treated with each compound at different concentrations for 8 h in the dark. After this time, the medium was removed, fresh medium was added, and cells were kept in the dark or irradiated with white light for 15 min. Subsequently, the plates were incubated in the dark for an additional 48 h, and the MTT assay was performed as previously described in the literature.[34] Measurements were performed at 550 nm with the Tristar2Multimode Reader (Berthold Technologies).
In general terms: Formazan colour is commonly taken as a measure of viable cells.
Consider `N.N.[Cl][Pt][Cl]` [cisplatin, reference compound], for which the IC50 was 29 µM.

The data set is the same for the next values; noted with them: Homo sapiens, AGS, 8 h incubation, kept in dark, MTT after 48 h, N = 3, read-out: IC50 dark.
Regarding `C=CC1=C(C)c2cc3[nH]c(cc4nc(cc5[nH]c(cc1n2)c(C)c5CCC(=O)O)C(CCC(=O)O)=C4C)c(C)c3C=C` [PpIX, protoporphyrin IX], the half-maximal inhibitory concentration (IC50) is > 100 µM.
The same measure, in the same setting: in the case of `C=Cc1c(C)c2cc3nc(cc4[nH]c(cc5nc(cc1[nH]2)C(C)=C5CCC(=O)OC)c(CCC(=O)OC)c4C)C1(C)C3=CCC(C(=O)OC)=C1C(=O)OC` (stereo not drawn) [3A] it was > 100 µM; in that of `C=Cc1c(C)c2cc3nc(cc4[nH]c(cc5nc(cc1[nH]2)C1(C)C5=CCC(C(=O)OC)=C1C(=O)OC)c(C)c4CCC(=O)OCc1ccccc1)C(CCC(=O)OCc1ccccc1)=C3C` (stereo not drawn) [4B], > 100 µM.

Still in this data set, the particulars now being: Homo sapiens, AGS, 8 h incubation, white light 15 min, MTT after 48 h, N = 3, read-out: IC50 light.
Consider `C=CC1=C(C)c2cc3[nH]c(cc4nc(cc5[nH]c(cc1n2)c(C)c5CCC(=O)O)C(CCC(=O)O)=C4C)c(C)c3C=C` [PpIX, protoporphyrin IX], for which the 50% inhibitory concentration (IC50) turned out to be 0.5 µM.
Regarding `C=Cc1c(C)c2cc3nc(cc4[nH]c(cc5nc(cc1[nH]2)C(C)=C5CCC(=O)OC)c(CCC(=O)OC)c4C)C1(C)C3=CCC(C(=O)OC)=C1C(=O)OC` (stereo not drawn) [3A], the half-inhibitory concentration (IC50) turned out to be 0.1 ± 0.06 µM.
For the compound `C=Cc1c(C)c2cc3nc(cc4[nH]c(cc5nc(cc1[nH]2)C1(C)C5=CCC(C(=O)OC)=C1C(=O)OC)c(C)c4CCC(=O)OCc1ccccc1)C(CCC(=O)OCc1ccccc1)=C3C` (stereo not drawn) [4B], the IC50 turned out to be 2.8 ± 0.265 µM.

The data set is the same for the next values; noted with them: IC50 dark/light ratio.
As for `C=CC1=C(C)c2cc3[nH]c(cc4nc(cc5[nH]c(cc1n2)c(C)c5CCC(=O)O)C(CCC(=O)O)=C4C)c(C)c3C=C` [PpIX, protoporphyrin IX], the “PI (phototoxicity index)” value is on record as >200.
The same measure, in the same setting: under `C=Cc1c(C)c2cc3nc(cc4[nH]c(cc5nc(cc1[nH]2)C1(C)C5=CCC(C(=O)OC)=C1C(=O)OC)c(C)c4CCC(=O)OCc1ccccc1)C(CCC(=O)OCc1ccccc1)=C3C` (stereo not drawn) [4B] stands >36.

Test system in another data set: not listed separately
As to the kind of experiment: Fluorescence quantum yield. Type of data set: physicochemical. As to conditions: DMSO, ligands excited at 503 nm, ruthenium complexes at 573 nm, relative to verteporfin. As for the experimental part: Emission spectra were measured in DMSO. The free ligands were excited at 503 nm, while the ruthenium complexes were excited at 573 nm. For the calculation of fluorescence quantum yield, verteporfin (Φf = 0.0085) was used as a reference.[46] In all metal-free compounds, an intense emission band at approximately 630–670 nm and a small band at approximately 700–750 nm were observed, assigned to Q (0–0) and Q (1–0) transitions, respectively.[48] […] A similar behavior has been observed in palladium(II) and nickel(II) metaloporphyrins, where the fluorescence was quenched due to electron or energy transfer.[49]
The fluorescence quantum yields were determined using verteporfin in DMSO as a reference (Φf = 0.0085).[46],[89] The free ligands were excited at 503 nm, and the ruthenium complexes at 573 nm. The quantum yield was calculated following eq 1.[90],[91] [drawing 1] 1 Where ST and X are standard and analyte, respectively, Φf is the fluorescence quantum yield, Grad is the gradient from the area of integration fluorescence intensity vs absorbance, and ηX and ηST are the refractive index of the solvent used to measure the fluorescence spectrum of the analyte and the standard, respectively.
As to `C=Cc1c(C)c2cc3nc(cc4[nH]c(cc5nc(cc1[nH]2)C(C)=C5CCC(=O)OC)c(CCC(=O)OC)c4C)C1(C)C3=CCC(C(=O)OC)=C1C(=O)OC` (stereo not drawn) [3A], the “Φf luminescence quantum yield” value stood at 1.2%.
The same measure, in the same setting: under `C=Cc1c(C)c2cc3nc(cc4[nH]c(cc5nc(cc1[nH]2)C1(C)C5=CCC(C(=O)OC)=C1C(=O)OC)c(C)c4CCC(=O)OCc1ccccc1)C(CCC(=O)OCc1ccccc1)=C3C` (stereo not drawn) [4B] stands 1.0%.

For a further data set, the system named is GPX4. As to the kind of experiment: Western blot of GPX4 in AGS cells. Type of data set: cell-based, human. As to conditions: IC50 concentration 4 h, white light 15 min, 24 h in the dark. Here is the method: Ferroptosis, another form of nonapoptotic cell death, can promote inflammation and is triggered by iron-catalyzed lipid peroxidation via Fenton-type reactions, where the main ROS responsible for lipid damage are hydroxyl radical and superoxide radical.[81],[82] Glutathione peroxidase (GPX4) can suppress lipid peroxidation and protect cells from ferroptosis.[83] To investigate the impact of the different compounds on GPX4 expression, AGS cells were treated as described above, and then GPX4 expression was analyzed by Western blot (Figure 12a).
Figure 12 Effects of photoactivation of 1, Ru-1, 3B and Ru-3B on protein expression of ferroptosis and inflammation markers in AGS gastric cancer cells. […] (a) Expression of the different markers was determined by Western blot. GAPDH was used as a loading control. Representative Western blot of three independent experiments. ctl = control, untreated cells. Graphs represent the quantification of three independent experiments of GPX4 (b) and COX2 (c) expression, compared to not-treated AGS cells (ctl) and normalized to GAPDH expression. […]
Cells were then lysed in lysis buffer (50 mM Tris–HCl pH 6.7, NaCl 150 mM, NP40 1%). Total protein concentration was determined using Bradford assay and adjusted to the same quantity (50 μg) for each experiment. […] Protein bands were quantified using ImageJ software.[99] […]
For orientation: Immunoblotting shows a protein as a band on a membrane.
Regarding `C=CC1=C(C)c2cc3[nH]c(cc4nc(cc5[nH]c(cc1n2)c(C)c5CCC(=O)O)C(CCC(=O)O)=C4C)c(C)c3C=C` [PpIX, protoporphyrin IX], the GPX4 expression result is reported as “decrease in GPX4 expression”.

A further data set deals with COX2. As to the kind of experiment: Western blot of COX2 in AGS cells. It counts as cell-based, human. As to conditions: IC50 concentration 4 h, kept in the dark. As for the experimental part: Figure 12 Effects of photoactivation of 1, Ru-1, 3B and Ru-3B on protein expression of ferroptosis and inflammation markers in AGS gastric cancer cells. […] (a) Expression of the different markers was determined by Western blot. GAPDH was used as a loading control. Representative Western blot of three independent experiments. ctl = control, untreated cells. Graphs represent the quantification of three independent experiments of GPX4 (b) and COX2 (c) expression, compared to not-treated AGS cells (ctl) and normalized to GAPDH expression. Bars above the colons indicate the comparison of dark versus light for each compound. The dark and light results of each compound were compared to those of the respective untreated control condition (ctl). Statistical analysis: 2-way Anova *<0.05, **<0.01, ***<0.001, ns = not-significant.
COX2 is known for its central role in inflammation and prostaglandins (PGs) production. In normal cells, COX2 expression is almost absent, whereas in cancer cells, it is frequently overexpressed.[84] Importantly, it has been shown that in cancers, COX2 is not only a mediator of inflammation but could also be a mediator of oxidative stress and inhibition of apoptosis, as well as cancer cell proliferation.[85]
Cells were then lysed in lysis buffer (50 mM Tris–HCl pH 6.7, NaCl 150 mM, NP40 1%). Total protein concentration was determined using Bradford assay and adjusted to the same quantity (50 μg) for each experiment. A total of 30 μg of proteins were resolved by 6–15% SDS-PAGE (depending on protein molecular weight) and transferred to nitrocellulose blotting membranes according to standard methods. Membranes were blocked with blocking buffer (containing 5% milk powder or 1% BSA) for 1 h at room temperature, then washed three times with TBST or PBST (containing 0.1% Tween-20) and incubated with primary antibodies at 4 °C overnight. The following day, the membranes were washed thrice with […]. […] Protein bands were quantified using ImageJ software.[99] […]
Turning to `C=CC1=C(C)c2cc3[nH]c(cc4nc(cc5[nH]c(cc1n2)c(C)c5CCC(=O)O)C(CCC(=O)O)=C4C)c(C)c3C=C` [PpIX, protoporphyrin IX], the “COX2 expression in the dark” value is listed as “reduction in COX2 expression in the dark”.

Broadly, the IC50 is the concentration that gives 50% inhibition.

These data come from publication PMC12093383, “Protoporphyrin IX-Derived Ruthenium(II) Complexes for Photodynamic Therapy in Gastric Cancer Cells” (Inorganic Chemistry, 2025).
